According to US7138425B2, “Phthalimide carboxylic acid derivatives” (Oxford Glycoscience (UK) Ltd., priority 2002, dated 2006):

Columns and labels:
[1] = test system: human endothelial cells; experiment: Angiogenesis assay (AngioKit, tubule formation, PECAM-1 staining); assay type: cell-based; conditions: Endothelial cell, 264 h, AngioKit co-culture, tubule formation on day 11, PECAM-1 staining relative to untreated control, read-out: Inhibition of angiogenesis (IC50)
Excerpt: A commercial angiogenesis assay for analysing the angiogenic or anti-angiogenic properties of test compounds (AngioKit catalogue no. ZHA-1000, TCS CellWorks Ltd, Buckingham, U.K) was used. In this assay, human endothelial cells were co-cultured with other human cells in a specifically designed medium. The endothelial cells initially form small islands within the culture matrix. They subsequently proliferate and then enter a migratory phase during which they move through the matrix to form threadlike tubule structures. These gradually join up (by 12–14 days) to form networks of […] tubules which closely resemble a capillary bed structure. These tubules stain positive for von Willebrand's Factor, Platelet Endothelial Cell Adhesion Molecule-1 (PECAM-1 or CD31) and Intercellular Adhesion Molecule-2 (ICAM-2).
The assay is supplied as growing cultures at the earliest stage of tubule formation in a 24 well plate format It is designed so that test compounds and conditioned media can be added to the cultures within individual wells. The resulting effect on tubule formation can then be monitored. Positive and negative test agents are provided in the kit, e.g. Vascular Endothelial Growth Factor (VEGF) and sumarin. All reagents were included as part of the kit and the assay was performed according to the protocol supplied by TCS CellWorks Ltd. Briefly, on day 1, fresh growth medium, medium plus control agent or medium plus test compound was added to the cells and the cultures were incubated at 37° C., 5% CO2. […] The specified medium was changed at days 4, 7 and 9 and the cells were monitored for growth. On day 11, the cells were washed with Dulbecco's Phosphate-Buffered Saline (PBS) and fixed using 70% ethanol (−20° C.) for 30 min at room temperature. After fixing, the cells were washed and treated with blocking buffer, 1% BSA in PBS. The cells were stained for PECAM-1 on the same day, following standard immunohistochemistry procedures well known to those skilled in the art, using mouse anti-human CD31 as the primary antibody and a goat anti-mouse IgG alkaline phosphate conjugate. Tubule formation was quantitatively assessed by measuring PECAM-1 positive staining using the image analysis program “Matrox inspector” to evaluate the percentage tubule staining relative to an untreated control.

[2] = biological target: T1, human heparanase (Homo sapiens, UniProt Q9Y251); experiment: Heparanase assay (bFGF binding to heparan sulfate, plate ELISA); assay type: biochemical; conditions: human heparanase expressed in insect cells, pH 5.5, 2 h at 37° C.; read-out: Inhibition of Heparanase (IC50)
T1 construct: made in house; host or cells: insect cells
T1 sequence (Q9Y251 158-543 limits assumed): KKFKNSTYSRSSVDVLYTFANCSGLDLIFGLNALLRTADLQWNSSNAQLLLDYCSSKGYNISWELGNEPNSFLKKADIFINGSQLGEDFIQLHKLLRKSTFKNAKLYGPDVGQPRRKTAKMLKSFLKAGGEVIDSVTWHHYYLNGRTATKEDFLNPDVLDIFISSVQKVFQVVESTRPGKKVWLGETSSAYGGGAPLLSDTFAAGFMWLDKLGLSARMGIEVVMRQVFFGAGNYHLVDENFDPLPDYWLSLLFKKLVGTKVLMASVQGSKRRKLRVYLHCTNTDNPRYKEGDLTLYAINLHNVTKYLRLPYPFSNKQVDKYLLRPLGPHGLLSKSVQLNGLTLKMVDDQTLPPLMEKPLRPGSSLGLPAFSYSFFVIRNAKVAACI
T1 sequence (Q9Y251 36-109 limits assumed): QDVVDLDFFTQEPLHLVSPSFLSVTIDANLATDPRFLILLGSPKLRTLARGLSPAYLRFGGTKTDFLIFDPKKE
Protocol: The assay is based upon the specific binding of basic fibroblast growth factor (bFGF) to heparan sulfate. […] Heparan sulfate will ordinarly adhere to plastic well plate surfaces. Following cleavage of high molecular weight heparan sulfate by heparanase, the smaller material generated will no longer adhere to the surface of a well plate. Thus, upon addition to the plate of bFGF, heparanase activity can be followed as a reduction in bFGF binding.
Nunc Maxisorp 96-well plates are coated for 16 h at room temperature with 100 μl/well 0.04 mg/ml heparan sulfate in PBS. The wells are then aspirated and blocked for 1 h with 200 μl/well 1% BSA-PBS. Following five washes with 0.01% BSA, 0.05% Tween20 PBS (wash buffer), 100 μl of recombinant human basic FGF (90 ng/ml in 0.1% BSA/PBS) is added per well and the plate is incubated at room temperature for 1 h.
The human heparanase used is expressed in insect cells. The wells are washed again with wash buffer and 100 μl of bFGF antibody-horse radish peroxidase conjugate is added. The plate is then incubated at room temperature for 1 h and subsequently washed five times with wash buffer. 100 μl of TMB peroxidase substrate is added and the colour allowed to develop for 10 min. The reaction is stopped with 50 μl 1M H2SO4 and the colour intensity is read at 450 nm on a plate reader.

| Compound | IC50 [1] [nM] | IC50 [2] [nM] |
| --- | --- | --- |
| O=C(O)c1ccc2c(c1)C(=O)N(c1cccc(-c3nc4ccccc4o3)c1)C2=O [Example 1, 2-[3-(Benzoxazol-2-yl)phenyl]-2,3-dihydro-1,3-dioxo-1H-isoindole-5-carboxylic acid] | 40000 |  |
| O=C(O)c1ccc2c(c1)C(=O)N(c1cccc(-c3nc4cc5ccccc5cc4o3)c1)C2=O [Example 2, 2-[3-(Naphth[2,3-d]oxazol-2-yl)phenyl]-2,3-dihydro-1,3-dioxo-1H-isoindole-5-carboxylic acid] | 5000 | 700 |
| COc1ccc(-c2nc3cc(-c4ccccc4)ccc3o2)cc1N1C(=O)c2ccc(C(=O)O)cc2C1=O [Example 9, 2-[2-Methoxy-5-(5-phenylbenzoxazol-2-yl)phenyl]-1,3-dioxo-2,3-dihydro-1H-isoindole-5-carboxylic acid] | 1000 |  |
| COc1ccc(-c2nc3cc(-c4cc5ccccc5o4)ccc3o2)cc1N1C(=O)c2ccc(C(=O)O)cc2C1=O [Example 15, 2-[2-Methoxy-5-[5-(benzofuran-2-yl)benzoxazol-2-yl]phenyl]-1,3-dioxo-2,3-dihydro-1H-isoindole-5-carboxylic acid] | 1000 | 500 |
| COc1ccc(-c2ccc3oc(-c4ccc(OC)c(N5C(=O)c6ccc(C(=O)O)cc6C5=O)c4)nc3c2)cc1 [Example 27, 2-[2-Methoxy-5-[5-(4-methoxy)phenylbenzoxazol-2-yl]phenyl]-1,3-dioxo-2,3-dihydro-1H-isoindole-5-carboxylic acid] | 15000 |  |
| CCCNc1ccc(N2C(=O)c3ccc(C(=O)O)cc3C2=O)cc1-c1nc2ccc(C)cc2o1 [Example 65, 2-[3-(6-Methylbenzoxazol-2-yl)-4-propylaminophenyl]-1,3-dioxo-2,3-dihydro-1H-isoindole-5-carboxylic acid] | 5000 | 800 |
| CCCNc1ccc(N2C(=O)c3ccc(C(=O)O)cc3C2=O)cc1-c1nc2ccc(F)cc2o1 [Example 66, 2-[3-(6-Fluorobenzoxazol-2-yl)-4-propylaminophenyl]-1,3-dioxo-2,3-dihydro-1H-isoindole-5-carboxylic acid] | 2000 | 800 |
| CCCNc1ccc(N2C(=O)c3ccc(C(=O)O)cc3C2=O)cc1-c1nc2cc(Br)cc(F)c2o1 [Example 71, 2-[3-(5-Bromo-7-fluorobenzoxazol-2-yl)-4-propylaminophenyl]-1,3-dioxo-2,3-dihydro-1H-isoindole-5-carboxylic acid] | 500 | 500 |
| COc1ccc(-c2nc3cc(-c4cc5ccccc5s4)ccc3o2)cc1N1C(=O)c2ccc(C(=O)O)cc2C1=O [Example 92, 2-[2-Methoxy-5-[5-(2-benzothiophenyl)benzoxazol-2-yl]phenyl]-1,3-dioxo-2,3-dihydro-1H-isoindole-5-carboxylic acid] | 200 | 400 |
| COc1ccc(-c2nc3cc(-c4ccc(N(C)C)cc4)ccc3o2)cc1N1C(=O)c2ccc(C(=O)O)cc2C1=O [Example 97, 2-[2-Methoxy-5-[5-(4-N,N-dimethylaminophenyl)benzoxazol-2-yl]phenyl]-1,3-dioxo-2,3-dihydro-1H-isoindole-5-carboxylic acid] | 2000 | 800 |
| COc1ccc(N2C(=O)c3ccc(C(=O)O)cc3C2=O)cc1-c1nc2cc(-c3cc(F)cc(F)c3)ccc2o1 [Example 104, 2-[4-Methoxy-5-[5-(3,5-difluorophenyl)benzoxazol-2-yl]phenyl]-1,3-dioxo-2,3-dihydro-1H-isoindole-5-carboxylic acid] | 750 |  |
| COc1ccc(N2C(=O)c3ccc(C(=O)O)cc3C2=O)cc1-c1nc2cc(-c3ccc4c(c3)OCO4)ccc2o1 [Example 105, 2-[4-Methoxy-5-[5-(3,4-methylenedioxyphenyl)benzoxazol-2-yl]phenyl]-1,3-dioxo-2,3-dihydro-1H-isoindole-5-carboxylic acid] | 3000 |  |
| CCCNc1ccc(N2C(=O)c3ccc(C(=O)O)cc3C2=O)cc1-c1nc2cc(-c3cc4ccccc4o3)ccc2o1 [Example 108, 2-[4-Propylamino-3-[5-(2-benzofuranyl)benzoxazol-2-yl]phenyl]-1,3-dioxo-2,3-dihydro-1H-isoindole-5-carboxylic acid] | 2000 | 500 |
| CCCNc1ccc(N2C(=O)c3ccc(C(=O)O)cc3C2=O)cc1-c1nc2cc(-c3cc4ccccc4s3)ccc2o1 [Example 110, 2-[4-Propylamino-5-[5-(2-benzothiophenyl)benzoxazol-2-yl]phenyl]-1,3-dioxo-2,3-dihydro-1H-isoindole-5-carboxylic acid] | 5000 | 600 |
| CCCNc1ccc(N2C(=O)c3ccc(C(=O)O)cc3C2=O)cc1-c1nc2cc(-c3ccc(Cl)cc3)ccc2o1 [Example 112, 2-[4-Propylamino-5-[5-(4-chlorophenyl)benzoxazol-2-yl]phenyl]-1,3-dioxo-2,3-dihydro-1H-isoindole-5-carboxylic acid] | 2000 |  |
| CCCNc1ccc(N2C(=O)c3ccc(C(=O)O)cc3C2=O)cc1-c1nc2cc(-c3ccc(F)cc3)ccc2o1 [Example 115, 2-[4-Propylamino-5-[5-(4-fluorophenyl)benzoxazol-2-yl]phenyl]-1,3-dioxo-2,3-dihydro-1H-isoindole-5-carboxylic acid] | 250 |  |
| CCCNc1ccc(N2C(=O)c3ccc(C(=O)O)cc3C2=O)cc1-c1nc2cc(-c3ccc(OC(F)(F)F)cc3)ccc2o1 [Example 116, 2-[4-Propylamino-5-[5-(4-trifluoromethoxy)phenylbenzoxazol-2-yl]phenyl]-1,3-dioxo-2,3-dihydro-1H-isoindole-5-carboxylic acid] | 100 |  |
